Test results: patent US7867992B2, “Substituted quinolones” (AiCuris GmbH & Co. KG, priority 2004, dated 2011)
Where a name gives a salt, the structure may show the parent alone. Read-outs that look alike come from different tables or passages of the source.

Columns and labels:
[1] = Cytostatic effect on NHDF cells in the anti-HCMV cytopathogenicity test; format: cell-based; settings: NHDF cells (human prepuce fibroblasts), 6 days incubation, visual assessment, concentration at which no visible cytostatic effects are evident vs untreated cell control
Protocol: (§1) Anti-HCMV (Anti-human Cytomegalovirus) Cytopathogenicity Tests
(§2) The test compounds are employed as 50 millimolar (mM) solutions in dimethyl sulfoxide (DMSO). Ganciclovir®, Foscamet® and Cidofovir® are used as reference compounds. After the addition of 2 μl of the 50, 5, 0.5 and 0.05 mM DMSO stock solutions respectively to 98 μl portions of cell culture medium in row 2 A-H for duplicate determinations, 1:2 dilutions are carried out with 50 μl portions of medium up to row 11 of the 96-well plate. The wells in rows 1 and 12 each contain 50 μl of medium. 150 μl of a suspension of 1×10^4 cells (human prepuce fibroblasts [NHDF]) are then pipetted into each of the wells (row 1=cell control) and, in rows 2-12, a mixture of HCMV-infected and uninfected NHDF cells (M.O.I.=0.001-0.002), i.e. 1-2 infected cells per 1000 uninfected cells. Row 12 (without substance) serves as virus control. The final test concentrations are 250-0.0005 μM. The plates are incubated at 37° C./5% CO2 for 6 days, i.e. until all the cells in the virus controls are infected (100% cytopathogenic effect [CPE]). The wells are then fixed and stained by adding a mixture of formalin and Giemsa's dye (30 minutes), washed with double-distilled water and dried in a drying oven at 50° C. The plates are then assessed visually using an overhead microscope (plaque multiplier from Technomara).
(§3) The following data can be obtained from the test plates: • CC50 (NHDF)=substance concentration in μM at which no visible cytostatic effects on the cells are evident by comparison with the untreated cell control; • EC50 (HCMV)=substance concentration in μM which inhibits the CPE (cytopathic effect) by 50% compared with the untreated virus control; • SI (selectivity index)=CC50 (NHDF)/EC50 (HCMV).

HCMV = experiment: Anti-HCMV cytopathogenicity test (CPE inhibition); format: cell-based, human cytomegalovirus; settings: for EC50: read-out: HCMV EC50; for SI HCMV (selectivity index): SI = CC50 (NHDF)/EC50 (HCMV)
Protocol: as §1, §2, §3

[2] = Human betaherpesvirus 5, 144 h, HCMV-infected NHDF cells, M.O.I. 0.001-0.002, 6 days, 50% inhibition of CPE vs untreated virus control

| SMILES | EC50 (HCMV; [2]) [µM] | CC50 at 6 days [1] [µM] | SI HCMV (selectivity index) (HCMV) | EC50 (HCMV; Human betaherpesvirus 5, NHDF, 144 h) [µM] |
| --- | --- | --- | --- | --- |
| Cc1cc(Cl)ccc1CNC(=O)c1cn(C2CC2)c2c(Cl)c(N3CCN(CCOCCO)CC3)c(F)cc2c1=O [Example 8, 8-Chloro-N-(4-chloro-2-methylbenzyl)-1-cyclopropyl-6-fluoro-7-{4-[2-(2-hydroxyethoxy)ethyl]piperazin-1-yl}-4-oxo-1,4-dihydroquinoline-3-carboxamide] | 0.19 | 7.7 | 41 | – |
| COc1c(N2C[C@@H](C)N[C@@H](C)C2)c(F)cc2c(=O)c(C(=O)NCc3ccc(C(F)(F)F)cc3C)cn(C3CC3)c12 [Example 24] | 0.25 | 4.7 | 19 | – |
| O=C(NCc1ccc(Cl)cc1Cl)c1cn(C2CC2)c2c(Cl)c(N3CCCN(CCO)CC3)c(F)cc2c1=O [Example 1, 8-Chloro-1-cyclopropyl-N-(2,4-dichlorobenzyl)-6-fluoro-7-[4-(2-hydroxyethyl)-1,4-diazepan-1-yl]-4-oxo-1,4-dihydroquinoline-3-carboxamide] | 0.2 | 2.5 | 12.5 | – |
| COc1c(N2C[C@@H](C)N(C(=O)CN)[C@@H](C)C2)c(F)cc2c(=O)c(C(=O)NCc3ccc(Cl)cc3Cl)cn(C3CC3)c12 [Example 79, 1-Cyclopropyl-N-(2,4-dichlorobenzyl)-6-fluoro-7-[(3RS,5SR)-4-glycyl-3,5-dimethylpiperazin-1-yl]-8-methoxy-4-oxo-1,4-dihydroquinoline-3-carboxamide hydrochloride] | – | 7.7 | 145 | 0.053 |
| C[C@@H]1CN(c2c(F)cc3c(=O)c(C(=O)NCc4ccc(Cl)cc4Cl)cn(C4CC4)c3c2Cl)C[C@H](C)N1 [Example 5, 8-Chloro-1-cyclopropyl-N-(2,4-dichlorobenzyl)-7-[(3RS,5SR)-3,5-dimethylpipierazin-1-yl]-6-fluoro-4-oxo-1,4-dihydroquinoline-3-carboxamide] | 0.23 | 6 | 26 | – |
| COc1c(N2C[C@@H](C)N[C@@H](C)C2)c(F)cc2c(=O)c(C(=O)NCc3ccc(Cl)cc3Cl)cn(C3CCC3)c12 [Example 40] | 0.11 | 11 | 100 | – |
| COc1c(N2C[C@@H](C)N[C@@H](C)C2)c(F)cc2c(=O)c(C(=O)NCc3ccc(Cl)cc3Cl)cn([C@@H]3C[C@@H]3F)c12 (mixture of isomers) [Example 16, N-(2,4-Dichlorobenzyl)-7-[(3RS,5SR)-3,5-dimethylpiperazin-1-yl]-6-fluoro-1-[(1R,2S)-2-fluorocyclopropyl]-8-methoxy-4-oxo-1,4-dihydroquinoline-3-carboxamide] | 0.1 | 7.8 | 78 | – |
| COc1ccc(CNC(=O)c2cn(C3CC3)c3c(OC)c(N4C[C@@H](C)N[C@@H](C)C4)c(F)cc3c2=O)c(Cl)c1 [Example 22] | 0.38 | 8.4 | 22 | – |

More lines, main results first:

| EC50 (HCMV; [2]) [µM] | SMILES | CC50 at 6 days [1] [µM] | SI HCMV (selectivity index) (HCMV) | EC50 (HCMV; Human betaherpesvirus 5, NHDF, 144 h) [µM] |
| --- | --- | --- | --- | --- |
| 0.01 | COc1c(N2C[C@@H](C)N(CC(N)=O)[C@@H](C)C2)c(F)cc2c(=O)c(C(=O)NCc3ccc(Cl)cc3Cl)cn(CC(F)(F)F)c12 [Example 53, {(2RS,6SR)-4-[3-{[(2,4-Dichlorobenzyl)amino]carbonyl}-6-fluoro-8-methoxy-4-oxo-1-(2,2,2-trifluoroethyl)-1,4-dihydroquinolin-7-yl]-2,6-dimethylpiperazin-1-yl}acetamide] | 4.3 | 430 | – |
| 0.1 | COc1c(N2C[C@@H](C)N[C@@H](C)C2)c(F)cc2c(=O)c(C(=O)NCc3ccc(Cl)cc3Cl)cn(CCF)c12 [Example 28, N-(2,4-Dichlorobenzyl)-7-[(3RS,5RS-3,5-dimethyl)piperazin-1-yl]-6-fluoro-1-(2-fluoroethyl)-8-methoxy-4-oxo-1,4-dihydroquinoline-3-carboxamide hydroformate] | 6.1 | 63 | – |
| 0.077 | COc1c(N2C[C@@H](C)N[C@@H](C)C2)c(F)cc2c(=O)c(C(=O)NCc3ccc(Cl)cc3Cl)cn([C@@H](C)C(F)(F)F)c12 [Example 45] | 2.4 | 31 | – |
| 0.011 | COc1c(N2C[C@@H](C)N[C@@H](C)C2)c(F)cc2c(=O)c(C(=O)NCc3ccc(OC(F)(F)F)cc3Cl)cn(CC(F)(F)F)c12 [Example 51] | 5.3 | 482 | – |
| 0.0365 | COc1c(N2C[C@@H](C)N[C@@H](C)C2)c(F)cc2c(=O)c(C(=O)NCc3ccc(Cl)cc3Cl)cn(CC(F)F)c12 [Example 35] | 4.8 | 138 | – |
| 0.019 | COc1c(N2C[C@@H](C)N[C@@H](C)C2)c(F)cc2c(=O)c(C(=O)NCc3ccc(OC(F)(F)F)cc3C)cn(CC(F)(F)F)c12 [Example 52, 7-[(3RS,5SR)-3,5-Dimethylpiperazin-1-yl]-6-fluoro-8-methoxy-N-[2-methyl-4-(trifluoromethoxy)benzyl]-4-oxo-1-(2,2,2-trifluoroethyl)-1,4-dihydroquinoline-3-carboxamide] | 7.7 | 405 | – |
| 0.031 | COc1c(N2C[C@@H](C)N(C[C@@H](O)CO)[C@@H](C)C2)c(F)cc2c(=O)c(C(=O)NCc3ccc(Cl)cc3Cl)cn(C3CC3)c12 [Example 92] | 5.3 | 171 | – |
| 0.002 | COc1c(N2C[C@@H](C)N(CC(=O)NS(C)(=O)=O)[C@@H](C)C2)c(F)cc2c(=O)c(C(=O)NCc3ccc(OC(F)(F)F)cc3C)cn(CC(F)(F)F)c12 [Example 68] | 24 | 12000 | – |
| 0.092 | COc1c(N2CCN(CCC(N)=O)C(C)C2)c(F)cc2c(=O)c(C(=O)NCc3ccc(Cl)cc3Cl)cn(C3CC3)c12 (stereo not drawn) [Example 74] | 2.6 | 28 | – |
| 0.0085 | COc1c(N2C[C@@H](C)N(CC(=O)N(C)C)[C@@H](C)C2)c(F)cc2c(=O)c(C(=O)NCc3ccc(Cl)cc3Cl)cn(CC(F)(F)F)c12 [Example 54] | 21 | 2471 | – |
| 0.019 | COc1c(N2C[C@@H](C)N[C@@H](C)C2)c(F)cc2c(=O)c(C(=O)NCc3ccc(Cl)cc3Cl)cn([C@H]3C[C@H]3F)c12 [Example 34] | 8.4 | 442 | – |
